Where two headings read alike, the source gives them in different places.
What was measured:
[1] = molecular target: GST-RIPK2 fusion protein (human RIPK2 amino acids 1-310) (Homo sapiens (Human), UniProt O43353); test: RIPK2 binding competition assay (TR-FRET, Tracer 199)
[2] = test system: NF-κB pathway (SEAP) in THP1-Dual cells; test: THP-1 Dual cell SEAP assay (L18-MDP stimulated); type: cell-based; settings: read-out: NFkB THP1 IC50
[3] = read-out: RIPK2 IC50, RIPK2 binding competition assay

Sequence of GST-RIPK2 fusion protein (human RIPK2 amino acids 1-310) (O43353 1-310): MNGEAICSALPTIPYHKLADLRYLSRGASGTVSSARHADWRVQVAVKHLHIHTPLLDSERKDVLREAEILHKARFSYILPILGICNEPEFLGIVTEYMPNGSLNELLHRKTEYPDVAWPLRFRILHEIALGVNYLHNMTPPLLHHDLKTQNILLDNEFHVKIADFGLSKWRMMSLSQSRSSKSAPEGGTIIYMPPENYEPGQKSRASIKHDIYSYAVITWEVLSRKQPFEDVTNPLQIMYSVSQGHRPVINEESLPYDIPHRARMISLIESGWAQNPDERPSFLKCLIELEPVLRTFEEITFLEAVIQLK

IC50 [2] [µM] | SMILES | IC50 [1, 3] [µM] | IC50 ([2]; Homo sapiens, THP1-Dual) [µM] | IC50 [1] [µM]
 | COc1cc2ncc(-c3cc(F)nc(N[C@H]4C[C@H](O)C4)c3)n2cc1S(=O)(=O)C(C)(C)C [Example 193, (1r,3r)-3-((4-(6-(tert-butylsulfonyl)-7-methoxyimidazo[1,2-a]pyridin-3-yl)-6-fluoropyridin-2-yl)amino)cyclobutan-1-ol] | < 0.001 | < 0.05 | 
 | COc1cc2ncc(-c3cc(F)nc(NCCCN)c3)n2cc1S(=O)(=O)C(C)(C)C [Example 194, N1-(4-(6-(tert-butylsulfonyl)-7-methoxyimidazo[1,2-a]pyridin-3-yl)-6-fluoropyridin-2-yl)propane-1,3-diamine] | < 0.001 | < 0.05 | 
 | COc1cc2ncc(-c3cc(F)nc(NC[C@@H](O)CO)c3)n2cc1S(=O)(=O)C(C)(C)C [Example 195, (R)-3-((4-(6-(tert-butylsulfonyl)-7-methoxyimidazo[1,2-a]pyridin-3-yl)-6-fluoropyridin-2-yl)amino)propane-1,2-diol] | < 0.001 | < 0.05 | 
 | COc1cc2ncc(-c3cc(F)nc(NCc4ccn(C)c(=O)c4)c3)n2cc1S(=O)(=O)C(C)(C)C [Example 196, 4-(((4-(6-(tert-butylsulfonyl)-7-methoxyimidazo[1,2-a]pyridin-3-yl)-6-fluoropyridin-2-yl)amino)methyl)-1-methylpyridin-2(1H)-one] |  | < 0.05 | 0.001 to 0.0025
 | COc1cc2ncc(-c3cc(F)nc(NCCC4(O)CC4)c3)n2cc1S(=O)(=O)C(C)(C)C [Example 198, 1-(2-((4-(6-(tert-butylsulfonyl)-7-methoxyimidazo[1,2-a]pyridin-3-yl)-6-fluoropyridin-2-yl)amino)ethyl)cyclo-propan-1-ol] | < 0.001 | < 0.05 | 
 | COc1cc2ncc(-c3cc(F)nc(NCc4cc[nH]c(=O)c4)c3)n2cc1S(=O)(=O)C(C)(C)C [Example 199, 4-(((4-(6-(tert-butylsulfonyl)-7-methoxyimidazo[1,2-a]pyridin-3-yl)-6-fluoropyridin-2-yl)amino)methyl) pyridin-2(1H)-one] |  | 0.05 to 0.25 | 0.001 to 0.0025
 | COc1cc2ncc(-c3cc(F)nc(NCC4CCN(C)C(=O)C4)c3)n2cc1S(=O)(=O)C(C)(C)C (centres unmarked) [Example 200, 4-(((4-(6-(tert-butylsulfonyl)-7-methoxyimidazo[1,2-a]pyridin-3-yl)-6-fluoropyridin-2-yl)amino)methyl)-1-methylpiperidin-2-one] |  | < 0.05 | 0.001 to 0.0025
 | COc1cc2ncc(-c3cc(F)nc(NCC4(CO)CC4)c3)n2cc1S(=O)(=O)C(C)(C)C [Example 201, (1-(((4-(6-(tert-butylsulfonyl)-7-methoxyimidazo[1,2-a]pyridin-3-yl)-6-fluoropyridin-2-yl)amino)methyl)cyclo-propyl)methanol] |  | < 0.05 | 0.001 to 0.0025
 | COc1cc2ncc(-c3cc(F)nc(NCCO)c3)n2cc1S(=O)(=O)C(C)(C)C [Example 202, 2-((4-(6-(tert-butylsulfonyl)-7-methoxyimidazo[1,2-a]pyridin-3-yl)-6-fluoropyridin-2-yl)amino)ethan-1-ol] |  | < 0.05 | 0.001 to 0.0025
 | COc1cc2ncc(-c3cc(F)nc(NC[C@H](O)CO)c3)n2cc1S(=O)(=O)C(C)(C)C [Example 203, (S)-3-((4-(6-(tert-butylsulfonyl)-7-methoxyimidazo[1,2-a]pyridin-3-yl)-6-fluoropyridin-2-yl)amino)propane-1,2-diol] |  | 0.05 to 0.25 | 0.001 to 0.0025
< 0.05 | COc1cc2ncc(-c3cc(F)nc(N[C@H]4CC[C@@H](O)CC4)c3)n2cc1S(=O)(=O)C(C)(C)C [Example 206, (1s,4s)-4-((4-(6-(tert-butylsulfonyl)-7-methoxyimidazo[1,2-a]pyridin-3-yl)-6-fluoropyridin-2-yl)amino)cyclohexan-1-ol] |  |  | 0.001 to 0.0025
 | COc1cc2ncc(-c3cc(F)nc(N4CCC(O)CC4)c3)n2cc1S(=O)(=O)C(C)(C)C [Example 207, 1-(4-(6-(tert-butylsulfonyl)-7-methoxyimidazo[1,2-a]pyridin-3-yl)-6-fluoropyridin-2-yl)piperidin-4-ol] |  | < 0.05 | 0.001 to 0.0025
 | COc1cc2ncc(-c3cc(F)nc(NCC4(O)CC4)c3)n2cc1S(=O)(=O)C(C)(C)C [Example 208, 1-(((4-(6-(tert-butylsulfonyl)-7-methoxyimidazo[1,2-a]pyridin-3-yl)-6-fluoropyridin-2-yl)amino)methyl) cyclopropan-1-ol] |  | < 0.05 | 0.001 to 0.0025
 | COc1cc2ncc(-c3cc(F)nc(N(C)CCCO)c3)n2cc1S(=O)(=O)C(C)(C)C [Example 209, 3-((4-(6-(tert-butylsulfonyl)-7-methoxyimidazo[1,2-a]pyridin-3-yl)-6-fluoropyridin-2-yl)(methyl)amino) propan-1-ol] |  | 0.05 to 0.25 | 0.001 to 0.0025
 | COc1cc2ncc(-c3cc(F)nc(NCCN4CCCC4=O)c3)n2cc1S(=O)(=O)C(C)(C)C [Example 210, 1-(2-((4-(6-(tert-butylsulfonyl)-7-methoxyimidazo[1,2-a]pyridin-3-yl)-6-fluoropyridin-2-yl)amino)ethyl) pyrrolidin-2-one] |  | 0.05 to 0.25 | 0.001 to 0.0025
 | COc1cc2ncc(-c3cc(F)nc(N4CCOCC4)c3)n2cc1S(=O)(=O)C(C)(C)C [Example 211, 4-(4-(6-(tert-butylsulfonyl)-7-methoxyimidazo[1,2-a]pyridin-3-yl)-6-fluoropyridin-2-yl)morpholine] |  | 0.25 to 1 | 0.0025 to 0.02
 | COc1cc2ncc(-c3cc(F)nc(NC4CCOCC4)c3)n2cc1S(=O)(=O)C(C)(C)C [Example 212, 4-(6-(tert-butylsulfonyl)-7-methoxyimidazo[1,2-a]pyridin-3-yl)-6-fluoro-N-(tetrahydro-2H-pyran-4-yl)pyridin-2-amine] |  | > 1 | 0.0025 to 0.02
 | COc1cc2ncc(-c3cc(F)nc(NCCC4(O)COC4)c3)n2cc1S(=O)(=O)C(C)(C)C [Example 213, 3-(2-((4-(6-(tert-butylsulfonyl)-7-methoxyimidazo[1,2-a]pyridin-3-yl)-6-fluoropyridin-2-yl)amino)ethyl)oxetan-3-ol] |  | 0.25 to 1 | 0.0025 to 0.02
 | COc1cc2ncc(-c3cc(F)c(C#N)c(NCCCO)c3)n2cc1S(=O)(=O)C(C)(C)C [Example 214, 4-(6-(tert-butylsulfonyl)-7-methoxyimidazo[1,2-a]pyridin-3-yl)-2-fluoro-6-((3-hydroxypropyl)amino) benzonitrile] |  | 0.05 to 0.25 | 0.0025 to 0.02
 | COc1cc2ncc(-c3cc(N)nc(F)c3)n2cc1S(=O)(=O)C(C)(C)C [Example 215, 4-(6-(tert-butylsulfonyl)-7-methoxyimidazo[1,2-a]pyridin-3-yl)-6-fluoropyridin-2-amine] | < 0.001 | < 0.05 | 
 | COc1ccc(CNc2cc(-c3cnc4cc(OC)c(S(=O)(=O)C(C)(C)C)cn34)cc(F)n2)cc1 [Example 216] | < 0.001 | 0.05 to 0.25 | 
 | COc1cc2ncc(-c3cc(F)nc(N[C@H](C)CO)c3)n2cc1S(=O)(=O)C(C)(C)C [Example 221, (2R)-2-({6-fluoro-4-[7-methoxy-6-(2-methylpropane-2-sulfonyl)imidazo[1,2-a]pyridin-3-yl]pyridin-2-yl}amino)propan-1-ol] |  | < 0.05 | 0.001 to 0.0025
